# Measurements as given in article PMC3958483, “Fine Specificity and Molecular Competition in SLAM Family Receptor Signalling” (PLoS ONE, 2014).
# Non-standard residues stand in square brackets, D forms with d. Residues, ends and D or L forms follow the SMILES beside them. *: point of attachment. Biotin = O=C1N[C@H]2[C@H](CS[C@H]2CCCCC(=O)*)N1; pY = N[C@@H](Cc1ccc(OP(=O)(O)O)cc1)C(=O)O
# Experiments:
# [1] = Pull-down with EAT-2 Y127 phosphopeptide from NK92 lysates, LC-MS/MS; format: binding, human; conditions: NK92 cell lysates
# Method: (§1) For pull-down of associated proteins, streptavidin Sepharose (GE Healthcare) was pre-coated with saturating amounts of peptide or EAT-2. NK92 cells (4×10^8) were treated with 500 μM pervanadate for 15 minutes, then lysed in PBS, 1% Triton X-100, 1 mM sodium orthovanadate in the presence of mammalian protease inhibitor solution (Sigma). Lysates were pre-cleared by centrifugation, followed by incubation with streptavidin Sepharose. Peptide or EAT-2-coated streptavidin beads were incubated with NK92 lysates for 2 hours at 4°C with rotation. Beads were washed once with 15 ml ice cold PBS/1% (v/v) Triton X-100. Bound protein was eluted using 100 mM glycine-HCl pH 2.5.
# Protein samples were prepared for mass spectrometry as described previously. Briefly, eluted proteins were spun onto the membranes of Vivacon 500 filters (10,000 MWCO – Sartorius). Membranes were washed once with PBS then proteins were denatured with 8 M urea, reduced with 10 mM DTT in 25 mM ammonium bicarbonate buffer, followed by alkylation with 50 mM iodoacetamide. Proteins were then digested overnight with trypsin. Tryptic peptides were then eluted from the membrane and analyzed on an Ultimate 3000 HPLC-coupled Orbitrap XL mass spectrometer. […] Raw data files were converted to mzXML format using ReADW (v. 4.2.1) and submitted to the Central Proteomics Facilities Pipeline for database comparison and peptide identification. […]
# SHP-2 (SH2-SH2) = target: T1, SHP-2 (SH2-SH2) (Homo sapiens, UniProt Q06124); experiment: SPR binding of SHP-2 tandem (N+C) SH2 domains to immobilised phosphopeptides; conditions: 37°C, SHP2 N+C SH2, equilibrium binding fit shown in Figure 6D
# T1 construct: OPPF catalogue number 3911; aa 2–219, EC = 23,045 M^−1 cm^−1; His-tag; host or cells: E. coli BL21(DE3)pLysS
# T1 sequence (Q06124 2-219): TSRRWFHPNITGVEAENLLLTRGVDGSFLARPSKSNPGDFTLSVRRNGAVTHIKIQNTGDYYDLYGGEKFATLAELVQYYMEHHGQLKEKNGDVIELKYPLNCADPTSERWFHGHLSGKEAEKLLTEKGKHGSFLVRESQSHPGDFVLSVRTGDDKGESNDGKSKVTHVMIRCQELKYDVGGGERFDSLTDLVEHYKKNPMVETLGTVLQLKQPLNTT
# Description: Biotinylated EAT-2 was produced by expression of full length human EAT-2 with a C-terminal BirA tag ([…]) in the E coli expression vector pTrcHisA. Constructs encoding the 6xHis-tagged tandem SH2 domains plus the SH3 domains of PLCγ1 (Swiss-Prot: P19174, aa 536–863) and PLCγ2 (Swiss-Prot: P16885, aa 519–838) were generated in pTrcHisA (5′ joining sequence with BglII site underlined: gag atc tcc translates as EIS). The molecular weight (MW) and theoretical extinction coefficients (EC) of recombinant PLCγ1 and PLCγ2 SH2-SH2-SH3 domains were PLCγ1; MW = 42531, EC = 63,830 M^−1 cm^−1 and PLCγ2; MW = 42415, EC = 67,270 M^−1 cm^−1.
# Measurements of protein-protein affinity were performed on BIAcore 3000 and T200 systems using CM5 or biotin capture chips (GE Healthcare Ltd, UK). Streptavidin was coupled to CM5 sensor chips using standard NHS/EDC chemical linkage, followed by immobilization of biotinylated peptides. […] Equilibrium binding coefficients and dissociation and association rates were calculated using BIAevaluation and/or GraphPad Prism 5.4 software.
# Binding of inhibitory tyrosine phosphatases through their SH2 domains to ITIMs is enhanced by phosphorylation of two tyrosine motifs which are appropriately spaced. […] We measured binding of SHP-2 tandem SH2 domains (recombinant SHP-1 SH2 domains were unstable in solution) to tandem ITSMs in CD244 (Figure 6B and Table 4). […]
# [2] = Pull-down with phosphorylated CD244 ITSM1 from NK cell lysates, LC-MS/MS; format: binding; conditions: human NK cell lysates; compared with control phosphopeptide SHIP-1 Y865
# Method: as §1
# Protein samples were prepared for mass spectrometry as described previously. Briefly, eluted proteins were spun onto the membranes of Vivacon 500 filters (10,000 MWCO – Sartorius). Membranes were washed once with PBS then proteins were denatured with 8 M urea, reduced with 10 mM DTT in 25 mM ammonium bicarbonate buffer, followed by alkylation with 50 mM iodoacetamide. Proteins were then digested overnight with trypsin. Tryptic peptides were then eluted from the membrane and analyzed on an Ultimate 3000 HPLC-coupled Orbitrap XL mass spectrometer. Proteins were identified by liquid chromatography-coupled tandem mass-spectrometry (LC-MS/MS). Raw data files were converted to mzXML format using ReADW (v. 4.2.1) and submitted to the Central Proteomics Facilities Pipeline for database comparison and peptide identification. Searching against the International Protein Index (IPI) human protein sequence database for protein identification, protein and peptide hits were statistically validated by applying a 1% false discovery rate (FDR) by searching against a concatenated target/decoy database. Datasets were searched with variable peptide modifications for phosphotyrosine, phosphoserine, phosphothreonine, oxidation of methionine and deamination.
# Protein identification data were exported into ProteinCenter (v3.8.3013 – Thermo Fisher) for filtering and annotation. Results were filtered to remove any proteins with less than 3 unique peptides, less than 10 percent sequence coverage, or median protein probability scores less than 0.5. To establish sample specificity, any protein with at least 10-fold greater sequence coverage in one sample compared with the other was considered to be specific for that sample.
# Similarly, differences in specificity of inhibitory SH2 domain containing proteins for ITSMs are relevant to understanding mechanisms of inhibition by ITSMs. We focused on CD244 ITSMs to establish general paradigms.
# NK92 cells = experiment: IFNγ production by NK92 cells; format: cell-based, human; conditions: TJW, unpublished
compound,measurement,setting,value
Fyn: Src-family kinase,pull-down by EAT-2 Y127,[1],Notably absent from this list
CC[C@H](C)[C@H](NC(=O)[C@H](CCSC)NC(=O)[C@H](CO)NC(=O)[C@H](Cc1ccc(OP(=O)(O)O)cc1)NC(=O)[C@@H](NC(=O)[C@@H](NC(=O)[C@H](CO)NC(=O)CNC(=O)CNC(=O)CNC(=O)[C@@H]1CCCN1C(=O)[C@H](Cc1ccccc1)NC(=O)[C@@H](NC(=O)[C@H](CCC(N)=O)NC(=O)[C@H](CCC(=O)O)NC(=O)[C@H](CCC(N)=O)NC(=O)[C@H](CCC(=O)O)NC(=O)[C@H](Cc1c[nH]cn1)NC(=O)[C@H](CC(N)=O)NC(=O)[C@H](CCCNC(=N)N)NC(=O)[C@H](CCCNC(=N)N)NC(=O)[C@@H](NC(=O)[C@H](CCCCN)NC(=O)[C@H](CC(C)C)NC(=O)[C@H](CC(=O)O)NC(=O)[C@H](CCCCN)NC(=O)[C@@H](NC(=O)[C@H](CC(=O)O)NC(=O)[C@H](CCC(=O)O)NC(=O)[C@H](Cc1ccc(OP(=O)(O)O)cc1)NC(=O)[C@@H](NC(=O)[C@@H](NC(=O)[C@H](CC(C)C)NC(=O)[C@H](Cc1ccccc1)NC(=O)[C@H](CCC(=O)O)NC(=O)CCCC[C@@H]1SC[C@@H]2NC(=O)N[C@@H]21)[C@@H](C)O)[C@@H](C)CC)C(C)C)[C@@H](C)O)[C@@H](C)O)[C@@H](C)O)[C@@H](C)CC)C(=O)N[C@@H](CCC(N)=O)C(=O)N[C@@H](CO)C(=O)O [CD244 ITSM1+ITSM2] (Biotin-EFLTI[pY]EDVKDLKTRRNHEQEQTFPGGGSTI[pY]SMIQS-OH),Kd,SHP-2 (SH2-SH2),2.4 µM
PLCγ1: phospholipase C gamma-1,pull-down by CD244 ITSM1,[2],pulled down by the ITSM peptide
same,effect on IFNγ production by NK92 cells,NK92 cells,inhibitory
